Several values for one entry are separate records, joined by “and”; a condition that tells them apart may be missing. Identical values can stand only once.
Tests used:
[1] = tested on: B16V mouse melanoma cells; test: B16 V mouse melanoma cell test: melanin concentration after alpha-MSH stimulation; assay type: cell-based; details: for Relative melanin concentration (%): DMSO (0.1%) + α-MSH 10^-8 M, relative to blank DMSO + α-MSH = 100%
Protocol: Description of the performance of the B16 V mouse melanoma cell test:
B16V mouse melanoma cells (manufacturer: DSMZ; Article No.: ACC370) in RPMI medium (Invitrogen, Article No.: 31870), to which 10% of FBS (foetal bovine serum, Invitrogen, Article No: 10499044), 2 mM L-glutamine (Invitrogen, Article No: 25030) and 1 mM sodium pyruvate (Invitrogen, Article No: 11360) had additionally been added (modified RPMI medium), are transferred into a culture bottle and incubated at 37° C. and 5% CO2 for 72 h. The medium is separated off, and the cells are washed with 10 ml of D-PBS (Invitrogen, Article No. 14190) and subsequently filtered off with suction. 1 ml of HyQtase cell detachment solution (Hyclone, Article No. SV30030.01) is added to the cells. The bottle is swirled a number of times, and the HyQtase cell detachment solution is subsequently removed by suction. The cells are then incubated in the incubator at 37° C. and 5% CO2for 5 min. The cells are taken up in the modified RPMI medium (Invitrogen, Article No.: 31870), and the cell count is determined. To this end, the cells are stained with Tryptan Blue and counted in a Neubauer chamber. The cells are subsequently sown out again in the modified RPMI medium in a defined cell count of 80,000 cells per well (6-well clear plate, TCT, PS (Nunc)).
The plate is subsequently incubated at 37° C. and 5% CO2 for 24 h, the medium is then removed. 1980 μl of the isomaltulose dilution are subsequently added. For this substance dilution, the isomaltulose is dissolved in DMSO and subsequently filtered through a sterile filter (0.2 μm, Millipore, Article No. SLLG013SL). The solution is then diluted with the modified RPMI medium (in this case the FBS content in the RPMI medium is only 5%) in such a way that the isomaltulose concentration is 1 mM or 5 mM. 20 μl of an alpha-MSH solution in DMSO (alpha-melanocyte-stimulating hormone=alpha-MSH) (DMSO, Sigma, Article No.:D2650) are then added, so that the alpha-MSH concentration in the well is 10^−8 M. The plate is subsequently incubated again at 37° C. and 5% CO2 for 24 h. […]
After the final incubation period, the medium is removed by suction, and the cells are washed with 1000 μl of D-PBS (Invitrogen, Article No. 14190). […] The cell count is subsequently determined. To this end, the cells are stained with Tryptan Blue and counted in a Neubauer chamber. […] 200 μl are then pipetted as quadruple determination (per cup) into a 96-well plate (VWR, Article No. 4100636981), and the absorption at a wavelength of 405 nm is determined. […] The content of melanin can be determined in this way by means of a calibration line.
The other values were determined relative to the blank sample with dimethyl sulfoxide (DMSO) and α-MSH, whose measurement was set at 100%

[2] = tested on: explants from the stomach tissue of a pale-skinned person; test: Ex-vivo study: chromametric colour measurement (L, a, b) of skin explants; set-up: species or system human; key to a / b: CIE L*a*b* colour coordinates (Minolta CR-300, D65); details: for L / a / b: n=3, listed as P2
Protocol: 12 explants from the stomach tissue of a pale-skinned person (type) having an average diameter of 10 mm are prepared (reference: […]-AB49). The explants are kept in a BEM medium (BIO-EC's explants medium) at 37° C. in a moist atmosphere comprising 5% of CO2. The following samples are tested: (in each case 3 explants), where the solutions of the corresponding substances used comprise 90% of water and 10% of ethanol. […] 2 μl of the respective sample are added to the explants and distributed for the first time (DO), 1 day later (D1), 2 days later (D2), 3 days later (D3) and 4 days later (D4). The colour of the explants is determined chromametrically. The measurements are carried out on addition (DO), on day 1 (D1), on day 5 (D5) and on day 11 (D11). The colour measurements are carried out using a Minolta CR-300 Chroma-meter, and the L, a and b values are read off correspondingly on the instrument. […] A colour area is present here which is viewed at a viewing angle of 2 degrees. This viewing angle is used as standard in the chromametric measurement. • Irradiation source D65, corresponding to daylight • Region of the measurement: 3 mm • Parameters used: L* a* b* The sample is placed on the bearing rail with the epidermis facing downwards. The irradiation is carried out from the underside through the area indicated (3 mm). In the colorimetric determinations <L a b>, the L value determines the contrast of the skin. If the L value drops, the skin appears darker.

[3] = D0 (on addition), single explant values
[4] = D1, 2 μl sample applied D0-D4, single explant values
[5] = D5, 2 μl sample applied D0-D4, single explant values
[6] = D11, 2 μl sample applied D0-D4, single explant values
[7] = in comparison with the untreated sample

Compound | Relative melanin concentration (%) ([1]; 1 mM) | Relative melanin concentration (%) ([1]; 5 mM) | melanin production ([1]; cell culture tests with B16V mouse melanoma cells) | L [2, 3] | a [2, 3] | b [2, 3] | L [2, 4] | a [2, 4] | b [2, 4] | L [2, 5] | a [2, 5] | b [2, 5] | L [2, 6] | a [2, 6] | b [2, 6] | skin darkness (L values) [2, 7] | skin shade, red-brown shift (a value) [2, 7]
OC[C@H]1O[C@H](OC[C@H]2OC(O)(CO)[C@@H](O)[C@@H]2O)[C@H](O)[C@@H](O)[C@@H]1O (stereo partly drawn) [isomaltulose, α-D-glucopyranose-(1→6)-D-fructose (open, α- or (β-form) (isomaltulose)] | 65.0% | 58.1% | reduces melanin production | 62.89 and 62.96 and 61.62 | 2.75 and 2.19 and 3.28 | 15.88 and 18.71 and 18.43 | 63.09 and 64.04 and 62.97 | 3.72 and 2.1 and 3.32 | 16.05 and 17.73 and 17.92 | 63.79 and 62.89 and 63.61 | 2.57 and 2.67 and 3.26 | 14.33 and 17.15 and 16.3 | 65.69 and 59.72 and 60.71 | 2.41 and 3.44 and 3.59 | 12.35 and 11.35 and 11.57 | darkening of the skin | more natural skin shade
O=c1cc(CO)occ1O [kojic acid, reference compound] | 71.4% |  |  |  |  |  |  |  |  |  |  |  |  |  |  |  | 

Source: patent US20130108565A1, “TANNING ENHANCERS AND SELF-TANNING SUBSTANCES” (MERCK PATENT GESELLSCHAFT MIT BESCHRANKTER HAFTUNG, priority 2010, published 2013)
